Experimental data as given in patent publication US20260356860A1, “2-SUBSTITUTED 3,4A,5,7,8,8A-HEXAHYDRO-4H-THIOPYRANO[4,3-DJPYRIMIDIN-4-ONES FOR WOUND TREATMENT” (priority 2022, published 2026).

Key:
[1] = tested on: S. aureus (MRSA) (derived from ATCC ® 33593 ™); assay: Bacteriostasis, log reduction; format: cell-based; details: for Average result / Log Reduction / Log Value: S. aureus (MRSA) ATCC 33593
[2] = tested on: Full-thickness, 3rd degree burn wounds; assay: 3rd degree burn wound healing study (60-day); format: in vivo, Yucatan minipig; details: for burn wound healing rate versus saline control: about day 16 to day 30; for burn wound histology (H&E) versus saline and GO-HA: improved organized reticular collagen and rete ridge formation
Description: The test composition in the closed excisional wound and burn studies for compounds without GO-HA (no GO-HA added) was a mixture with an overall concentration of 0.20 to 0.25 mg/mL of the respective compound in serum formulation as follows: compound (4 mg), butylene glycol (0.80 mL), polysorbate 20 (0.40 mL), ultra pure water (18 mL), and hydroxypropyl cellulose (0.12 g).
The test composition in the closed excisional wound and burn studies for compounds with GO-HA (Compound+GO-HA) was a mixture with an overall concentration of 1.0 mg/mL of the respective compound and 0.5 mg/mL of GO-HA in serum formulation as follows: compound (18 mg), PEG 400 (0.8 mL), GO-HA (9 mg), ultra pure water (18 mL), and hydroxypropyl cellulose (0.12 g).
Full-thickness 60-day burn wound healing study. Full-thickness, 3rd degree burn wounds of 3×3 cm^2 size were created on the back of the Yucatan minipig (5 wounds on each side of the spine, 10 total per swine) by using a brass cylinder (circular cross-section, 3 cm diameter) that was preheated in an oven at 100° C. and applied to the dorsal skin with light pressure for 30 seconds. Debridement of the wounds occurred day 7 post-dose. Compounds were dosed topically three times a week (0.24 mL) for thirty days. At 30 day time-point, the wounds were photographed once a week and NO dosing of compounds conducted from day 31-60. On day 60 animals were sacrificed and tissue prepared for analysis.

[3] = tested on: E. coli 0157:H7 (derived from ATCC ® 12900 ™); assay: Bacteriostasis, log reduction; format: cell-based; details: E. coli 0157:H7 ATCC 12900
new porcine skin = assay: Energy peak of healed wound; format: in vivo; details: day 21; for Energy Peak / Energy Peak, Mean: topical
Description: Additional tests were performed including elasticity (Table 12); max force (Table 13); tensile strength (strain) (Table 14); energy peak (Table 15); rete-ridge formation; and collagen organization (plane polarized light) (FIG. 24) of the healed wound sites, described as follows.
A is saline (control), B is serum formulation (vehicle), C is GO-HA (vehicle), D is Compound 1; E is Compound 1+GO-HA; F is Compound 8; G is Compound 8+GO-HA; H is Compound 10; and J is Compound 10+GO-HA.
Energy Peak (N*mm) is the maximum force applied to a material over time. All compounds of Formula (I) tested with or without GO-HA ranged from 5% to 41% improvement in energy peak compared to the saline control. […] The vehicle, GO-HA, provided a 61% improvement in energy peak over the saline control.

Row | SMILES | Average result ([1]; 24 h) | Log Reduction ([1]; 24 h) | Log Value ([1]; 24 h) | Average result ([1]; 72 h) | Log Reduction ([1]; 72 h) | Log Value ([1]; 72 h) | burn wound healing rate versus saline control [2] | burn wound histology (H&E) versus saline and GO-HA [2] | Average result ([3]; 24 h) | Log Reduction ([3]; 24 h) | Log Value ([3]; 24 h) | Average result ([3]; 72 h) | Log Reduction ([3]; 72 h) | Log Value ([3]; 72 h) | Energy Peak (new porcine skin; individual value 1) | Energy Peak (new porcine skin; individual value 2) | Energy Peak (new porcine skin; individual value 3) | Energy Peak (new porcine skin; individual value 4) | Energy Peak, Mean (new porcine skin) | improvement in energy peak compared to the saline control (new porcine skin) | further results
1 | O=c1[nH]c(-c2ccc(-c3ccc(Br)nc3)cc2)nc2c1CSCC2 [Compound 7, 2-(4-(6-bromopyridin-3-yl)phenyl)-3,5,7,8-tetrahydro-4H-thiopyrano [4,3-d]pyrimidin-4-one] | 2.7 × 10^3 | 1.2 | 3.4 | 1.4 × 10^5 | No | 5.1 | statistically significant improved burn wound healing rates | promoted regeneration of tissue (improved organized reticular collagen and rete ridge formation) and reduced scar formation |  |  |  |  |  |  |  |  |  |  |  |  | 
2 | O=c1[nH]c(-c2ccc(B(O)O)cc2)nc2c1CSCC2 [Compound 1, (4-(4-oxo-3,5,7,8-tetrahydro-4H-thiopyrano[4,3-d]pyrimidin-2-yl)phenyl)boronic acid] | 9.3 × 10^3 | 0.6 | 4.0 | 4.0 × 10^4 | No | 4.6 |  |  | 5.5 × 10^3 | 0.5 | 3.7 | <200 | >1.9 | <2.3 | 3084.657 N*mm | 2356.435 N*mm | 1240.242 N*mm | 1885.046 N*mm | 2141.595 N*mm |  | effect on MRSA growth ([1]; 72 h, test 1): did not affect MRSA growth
3 | O=c1[nH]c(-c2ccc(-c3ccc(B(O)O)cc3)cc2)nc2c1CSCC2 [Compound 10, (4′-(4-oxo-3,5,7,8-tetrahydro-4H-thiopyrano[4,3-d]pyrimidin-2-yl)-[1,1′-biphenyl]-4-yl)boronic acid] | 3.1 × 10^4 | 0.1 | 4.5 | 2.7 × 10^3 | 1.2 | 3.4 |  |  | <200 | >1.9 | <2.3 | <200 | >1.9 | <2.3 | 3149.241 N*mm | 3038.880 N*mm | 2645.076 N*mm | 2623.098 N*mm | 2864.074 N*mm | 41% | 
4 | CC(C)(OCCO)c1ccc(-c2nc3c(c(=O)[nH]2)CSCC3)cc1 [Compound 8, 2-(4-(2-(2-hydroxyethoxy)propan-2-yl)phenyl)-3,5,7,8-tetrahydro-4H-thiopyrano[4,3-d]pyrimidin-4-one] | 3.3 × 10^6 | No | 6.5 | 1.0 × 10^6 | No | 6.0 | statistically significant improved burn wound healing rates | promoted regeneration of tissue (improved organized reticular collagen and rete ridge formation) and reduced scar formation |  |  |  |  |  |  | 2946.121 N*mm | 5124.987 N*mm | 2632.780 N*mm | 2286.458 N*mm | 2856.897 N*mm | 29% | Energy Peak (new porcine skin; individual value 5): 1294.14 N*mm
5 | COC(=O)NCCOC(C)(C)c1ccc(-c2nc3c(c(=O)[nH]2)CSCC3)cc1 [Compound 18, methyl (2-((2-(4-(4-oxo-3,5,7,8-tetrahydro-4H-thiopyrano[4,3-d]pyrimidin-2-yl)phenyl)propan-2-yl)oxy)ethyl)carbamate] | 1.5 × 10^3 | 1.6 | 3.2 | <200 | >2.5 | <2.3 |  |  | <200 | >1.9 | <2.3 | <200 | >1.9 | <2.3 |  |  |  |  |  |  | 
